{"source": "patent US7517885B2", "about": "“Substituted [4-(4-phenyl-piperazin-1-yl)-cyclohexyl]-urea compounds” (Janssen Pharmaceutica N.V., priority 2005, dated 2009)", "key": {"α1a-AR": {"target": "T1, α1a-AR (Homo sapiens, UniProt P35348)", "T1 construct": "expressed in transfected cells; host or cells: COS-7 cells (membranes)", "T1 sequence (P35348 1-455 isoform P35348-4)": "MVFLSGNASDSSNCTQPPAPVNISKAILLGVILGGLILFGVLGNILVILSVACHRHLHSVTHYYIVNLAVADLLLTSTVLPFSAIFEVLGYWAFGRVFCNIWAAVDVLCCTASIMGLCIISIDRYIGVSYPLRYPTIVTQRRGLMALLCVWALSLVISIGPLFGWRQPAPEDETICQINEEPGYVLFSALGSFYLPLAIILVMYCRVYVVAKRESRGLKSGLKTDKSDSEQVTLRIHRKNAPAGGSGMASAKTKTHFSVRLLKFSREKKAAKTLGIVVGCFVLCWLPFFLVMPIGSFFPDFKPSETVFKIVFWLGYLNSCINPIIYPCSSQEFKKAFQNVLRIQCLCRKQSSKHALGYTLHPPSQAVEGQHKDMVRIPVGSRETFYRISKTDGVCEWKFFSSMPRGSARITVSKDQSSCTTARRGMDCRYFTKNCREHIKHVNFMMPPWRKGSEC", "assay": "α1-Adrenergic Receptor Binding Assay (125I-HEAT radio-ligand), α1a subtype", "details": "membranes of COS-7 cells transfected with α1a subtype; 125I-HEAT 50 pM; rt 1 hr", "experimental": "(§1) α1-Adrenergic Receptor Binding Assay\n(§2) Preparation of COS Cell Membranes\n(§3) Membranes were prepared from COS-7 cells (African Green monkey kidney SV40-transformed cells) that had been transfected with one of the three α1-AR subtypes (Genbank accession number for the α1a subtype: AF013261; Genbank accession number for the α1b subtype: NM000679; Genbank accession number for the α1d subtype: NM000678) using the following method: COS cells from ten 100 mm tissue culture plates were scraped into a 5 mL volume of TE (a mixture of 50 mM Tris-HCl, 5 mM EDTA, pH 7.4). […] The disrupted cells were centrifuged at 1000×g min at 4° C. Supernatants were centrifuged at 34,500×g for 20 min at 4° C. The membrane pellets were suspended in a 2 mL volume of TNE (a mixture of 50 mM Tris-HCl, 5 mM EDTA and 150 mM NaCl at pH 7.4). An aliquot of the membrane suspension was stored at −70° C. until use. The protein concentration was determined using the BioRad “DC” protein assay kit following membrane solubilization with Triton X-100.\n(§4) Radio-Ligand Binding Assay\n(§5) Triplicate determinations of radio-ligand binding in the presence of increasing concentrations of testing compound were made. The reagents were added to 96-well polypropylene plate wells. […] The plate was incubated at rt for 1 hr. The contents of the wells were filtered through a glass filter (type C) (GF/C) membrane Unifilter plate (Packard Instruments) using the Packard Filtermate cell harvester. The filter plates were dried in a vacuum oven for 30 min at 40° C. 25 μL Microscint 20 liquid scintillation fluid (Packard Instruments) was added to each well. The radioactive content was analyzed in the TopCount microplate scintillation counter (Packard Instruments)."}, "α1b-AR": {"target": "T2, α1b-AR (Homo sapiens, UniProt P35368)", "T2 construct": "expressed in transfected cells; host or cells: COS-7 cells (membranes)", "T2 sequence (P35368 1-520)": "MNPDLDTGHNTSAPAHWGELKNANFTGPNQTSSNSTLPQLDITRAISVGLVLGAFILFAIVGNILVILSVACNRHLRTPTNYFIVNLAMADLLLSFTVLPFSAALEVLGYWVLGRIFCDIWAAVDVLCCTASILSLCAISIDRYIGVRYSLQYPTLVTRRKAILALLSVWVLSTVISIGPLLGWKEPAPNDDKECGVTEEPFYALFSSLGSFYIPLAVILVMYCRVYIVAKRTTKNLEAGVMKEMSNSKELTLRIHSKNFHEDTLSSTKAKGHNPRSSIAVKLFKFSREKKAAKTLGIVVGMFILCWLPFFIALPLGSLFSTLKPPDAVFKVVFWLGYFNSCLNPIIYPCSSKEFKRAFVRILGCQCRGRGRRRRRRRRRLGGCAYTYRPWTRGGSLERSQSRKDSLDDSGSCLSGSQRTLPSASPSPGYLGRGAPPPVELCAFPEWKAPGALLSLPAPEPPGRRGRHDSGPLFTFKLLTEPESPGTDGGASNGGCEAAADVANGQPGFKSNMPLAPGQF", "assay": "α1-Adrenergic Receptor Binding Assay (125I-HEAT radio-ligand), α1b subtype", "details": "membranes of COS-7 cells transfected with α1b subtype; 125I-HEAT 50 pM; rt 1 hr", "experimental": "as §1, §2, §3, §4, §5"}, "α1d-AR": {"target": "T3, α1d-AR (Homo sapiens, UniProt P25100)", "T3 construct": "expressed in transfected cells; host or cells: COS-7 cells (membranes)", "T3 sequence (P25100 1-572)": "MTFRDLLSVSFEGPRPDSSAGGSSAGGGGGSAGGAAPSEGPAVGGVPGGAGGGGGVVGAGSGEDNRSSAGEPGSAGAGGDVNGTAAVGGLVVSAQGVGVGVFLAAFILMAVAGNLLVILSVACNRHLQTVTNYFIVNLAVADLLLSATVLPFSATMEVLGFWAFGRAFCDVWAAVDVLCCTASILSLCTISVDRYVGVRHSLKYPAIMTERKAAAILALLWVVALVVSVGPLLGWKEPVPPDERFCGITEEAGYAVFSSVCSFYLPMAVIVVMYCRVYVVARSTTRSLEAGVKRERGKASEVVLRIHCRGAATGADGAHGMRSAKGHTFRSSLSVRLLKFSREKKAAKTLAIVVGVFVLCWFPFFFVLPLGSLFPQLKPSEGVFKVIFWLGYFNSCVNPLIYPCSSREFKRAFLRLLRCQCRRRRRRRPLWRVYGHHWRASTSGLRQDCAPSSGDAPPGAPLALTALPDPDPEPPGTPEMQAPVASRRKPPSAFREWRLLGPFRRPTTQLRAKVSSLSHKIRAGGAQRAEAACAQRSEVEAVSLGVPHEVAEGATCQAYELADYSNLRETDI", "assay": "α1-Adrenergic Receptor Binding Assay (125I-HEAT radio-ligand), α1d subtype", "details": "membranes of COS-7 cells transfected with α1d subtype; 125I-HEAT 50 pM; rt 1 hr", "experimental": "as §1, §2, §3, §4, §5"}, "[1]": {"test_system": "α1a and α1d subtypes over the α1b subtype", "details": "cited from earlier work"}}, "data": [{"smiles": "CC(C)Oc1ccccc1N1CCN([C@H]2CC[C@@H](NC(=O)Nc3c(Cl)cc(Cl)cc3Cl)CC2)CC1", "note": "[Cpd 15, r-1-{c-4-[4-(2-isopropoxy-phenyl)-piperazin-1-yl]-cyclohexyl}-3-(2,4,6-trichloro-phenyl)-urea]", "values": [{"measurement": "Ki", "setting": "α1a-AR", "result": 51.2, "unit": "nM"}, {"measurement": "Ki", "setting": "α1b-AR", "result": 483, "unit": "nM"}, {"measurement": "Ki", "setting": "α1d-AR", "result": 25.3, "unit": "nM"}]}, {"smiles": "CC(C)Oc1ccccc1N1CCN([C@H]2CC[C@@H](NC(=O)NCc3cccc(F)c3)CC2)CC1", "note": "[Cpd 5, 1-(3-fluoro-benzyl)-r-3-{c-4-[4-(2-isopropoxy-phenyl)-piperazin-1-yl]-cyclohexyl}-urea]", "values": [{"measurement": "Ki", "setting": "α1a-AR", "result": 82, "unit": "nM"}, {"measurement": "Ki", "setting": "α1b-AR", "result": 706, "unit": "nM"}, {"measurement": "Ki", "setting": "α1d-AR", "result": 62, "unit": "nM"}]}, {"smiles": "CC(C)Oc1ccccc1N1CCN([C@H]2CC[C@@H](NC(=O)Nc3ccc(OC(F)(F)F)cc3)CC2)CC1", "note": "[Cpd 31, r-1-{c-4-[4-(2-isopropoxy-phenyl)-piperazin-1-yl]-cyclohexyl}-3-(4-trifluoromethoxy-phenyl)-urea]", "values": [{"measurement": "Ki", "setting": "α1a-AR", "result": 48, "unit": "nM"}, {"measurement": "Ki", "setting": "α1b-AR", "result": 277, "unit": "nM"}, {"measurement": "Ki", "setting": "α1d-AR", "result": 4.5, "unit": "nM"}]}, {"smiles": "CC(C)Oc1ccccc1N1CCN(C2CCC(NC(=O)Nc3ccccc3OC(F)(F)F)CC2)CC1", "note": "(mixture of isomers) [Cpd 30, 1-{4-[4-(2-isopropoxy-phenyl)-piperazin-1-yl]-cyclohexyl}-3-(2-trifluoromethoxy-phenyl)-urea]", "values": [{"measurement": "Ki", "setting": "α1a-AR", "result": 101, "unit": "nM"}, {"measurement": "Ki", "setting": "α1b-AR", "result": 604, "unit": "nM"}, {"measurement": "Ki", "setting": "α1d-AR", "result": 13.4, "unit": "nM"}]}, {"smiles": "CC(C)Oc1ccccc1N1CCN([C@H]2CC[C@H](NC(=O)Nc3cc(F)cc(F)c3)CC2)CC1", "note": "[Cpd 29, 1-(3,5-difluoro-phenyl)-r-3-{t-4-[4-(2-isopropoxy-phenyl)-piperazin-1-yl]-cyclohexyl}-urea]", "values": [{"measurement": "Ki", "setting": "α1a-AR", "result": 5.7, "unit": "nM"}, {"measurement": "Ki", "setting": "α1b-AR", "result": 52, "unit": "nM"}, {"measurement": "Ki", "setting": "α1d-AR", "result": 1, "unit": "nM"}]}, {"smiles": "COc1ccc(NC(=O)N[C@H]2CC[C@H](N3CCN(c4ccccc4OC(C)C)CC3)CC2)cc1Cl", "note": "[Cpd 35, 1-(3-chloro-4-methoxy-phenyl)-r-3-{t-4-[4-(2-isopropoxy-phenyl)-piperazin-1-yl]-cyclohexyl}-urea]", "values": [{"measurement": "Ki", "setting": "α1a-AR", "result": 13, "unit": "nM"}, {"measurement": "Ki", "setting": "α1b-AR", "result": 108, "unit": "nM"}, {"measurement": "Ki", "setting": "α1d-AR", "result": 2.3, "unit": "nM"}]}, {"smiles": "CC(C)Oc1ccccc1N1CCN([C@H]2CC[C@H](NC(=O)Nc3ccc(OC(F)(F)F)cc3)CC2)CC1", "note": "[Cpd 32, r-1-{t-4-[4-(2-isopropoxy-phenyl)-piperazin-1-yl]-cyclohexyl}-3-(4-trifluoromethoxy-phenyl)-urea]", "values": [{"measurement": "Ki", "setting": "α1a-AR", "result": 181, "unit": "nM"}, {"measurement": "Ki", "setting": "α1b-AR", "result": 129, "unit": "nM"}, {"measurement": "Ki", "setting": "α1d-AR", "result": 58, "unit": "nM"}]}, {"smiles": "CC(C)Oc1ccccc1N1CCN(C2CCC(NC(=O)Nc3ccccc3Oc3ccccc3)CC2)CC1", "note": "(mixture of isomers) [Cpd 17, 1-{4-[4-(2-isopropoxy-phenyl)-piperazin-1-yl]-cyclohexyl}-3-(2-phenoxy-phenyl)-urea]", "values": [{"measurement": "Ki", "setting": "α1a-AR", "result": 38, "unit": "nM"}, {"measurement": "Ki", "setting": "α1b-AR", "result": 430, "unit": "nM"}, {"measurement": "Ki", "setting": "α1d-AR", "result": 8.4, "unit": "nM"}]}, {"smiles": "CCOc1ccccc1OCCN[C@H](C)Cc1ccc(OC)c(S(N)(=O)=O)c1", "note": "[Tamsulosin]", "values": [{"measurement": "selective for the α1a and α1d subtypes over the α1b subtype", "setting": "[1]", "result": "about 15 fold"}]}, {"smiles": "CC(C)Oc1ccccc1N1CCN([C@H]2CC[C@H](NC(=O)Nc3cc(F)ccc3F)CC2)CC1", "note": "[Cpd 25, 1-(2,5-difluoro-phenyl)-r-3-{t-4-[4-(2-isopropoxy-phenyl)-piperazin-1-yl]-cyclohexyl}-urea]", "values": [{"measurement": "Ki", "setting": "α1a-AR", "result": 1.7, "unit": "nM"}, {"measurement": "Ki", "setting": "α1b-AR", "result": 36.4, "unit": "nM"}, {"measurement": "Ki", "setting": "α1d-AR", "result": 1.2, "unit": "nM"}]}, {"smiles": "CC(C)Oc1ccccc1N1CCN([C@H]2CC[C@H](NC(=O)NCc3cccc(F)c3)CC2)CC1", "note": "[Cpd 6, 1-(3-fluoro-benzyl)-r-3-{t-4-[4-(2-isopropoxy-phenyl)-piperazin-1-yl]-cyclohexyl}-urea]", "values": [{"measurement": "Ki", "setting": "α1a-AR", "result": 10.8, "unit": "nM"}, {"measurement": "Ki", "setting": "α1b-AR", "result": 69.6, "unit": "nM"}, {"measurement": "Ki", "setting": "α1d-AR", "result": 15.3, "unit": "nM"}]}, {"smiles": "COc1ccc(NC(=O)N[C@H]2CC[C@H](N3CCN(c4ccccc4OC(C)C)CC3)CC2)c(C)c1", "note": "[Cpd 21, r-1-{t-4-[4-(2-isopropoxy-phenyl)-piperazin-1-yl]-cyclohexyl}-3-(4-methoxy-2-methyl-phenyl)-urea]", "values": [{"measurement": "Ki", "setting": "α1a-AR", "result": 23.4, "unit": "nM"}, {"measurement": "Ki", "setting": "α1b-AR", "result": 153, "unit": "nM"}, {"measurement": "Ki", "setting": "α1d-AR", "result": 21.6, "unit": "nM"}]}, {"smiles": "CC(C)Oc1ccccc1N1CCN([C@H]2CC[C@@H](NC(=O)Nc3cc(F)cc(F)c3)CC2)CC1", "note": "[Cpd 28, 1-(3,5-difluoro-phenyl)-r-3-{c-4-[4-(2-isopropoxy-phenyl)-piperazin-1-yl]-cyclohexyl}-urea]", "values": [{"measurement": "Ki", "setting": "α1a-AR", "result": 108, "unit": "nM"}, {"measurement": "Ki", "setting": "α1b-AR", "result": 1050, "unit": "nM"}, {"measurement": "Ki", "setting": "α1d-AR", "result": 44, "unit": "nM"}]}, {"smiles": "CC(C)Oc1ccccc1N1CCN([C@H]2CC[C@@H](NC(=O)Nc3ccccc3Cl)CC2)CC1", "note": "[Cpd 9, 1-(2-chloro-phenyl)-r-3-{c-4-[4-(2-isopropoxy-phenyl)-piperazin-1-yl]-cyclohexyl}-urea]", "values": [{"measurement": "Ki", "setting": "α1a-AR", "result": 47.5, "unit": "nM"}, {"measurement": "Ki", "setting": "α1b-AR", "result": 373, "unit": "nM"}, {"measurement": "Ki", "setting": "α1d-AR", "result": 46, "unit": "nM"}]}]}
